Consider four compounds from patent publication US20250255889A1, “METHODS FOR TREATMENT SELECTION FOR CHRONIC LYMPHOCYTIC LEUKEMIA (CLL)” (The Broad Institute, Inc., priority 2022, published 2025).

This test concerns primary CLL samples (CD19+ and CD5+ cells). Briefly: High-throughput dynamic BH3 profiling (HT-DBP): drug-induced apoptotic priming (delta priming), cytochrome c release after BH3 peptide. The format is cell-based, human. The procedure, abridged: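 Primary CLL cells (CD19+/CD5+) are treated with the agent or DMSO carrier, then briefly exposed to a fixed concentration of a promiscuous BH3 peptide such as BIM. Mitochondrial cytochrome c release serves as the priming surrogate. Delta priming is drug-treated priming minus DMSO-treated priming, run in high-throughput format.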

[1] abbreviates: peptide BAD 0.3 uM, feature priortrt_Post.
The mark [2] stands for this setting: peptide PUMA 1 uM, feature priortrt_Post.
Where [3] appears, read: peptide BAD 0.3 uM, feature M-CLL.
[4] abbreviates: peptide BAD 0.3 uM, feature U-CLL.
Setting [5] is: peptide MS1 2.5 uM, feature EC-m4.

SMILES strings stand for the structures.

In the case of `NC1(c2ccc(-c3nc4ccn5c(=O)[nH]nc5c4cc3-c3ccccc3)cc2)CCC1` [MK-2206], the direction result reads like this: (Feature priortrt_Post) “Resistant”; (peptide BAD 0.3 uM, feature EC-i) “Resistant”; (peptide BAD 0.3 uM, feature IGLV321_R110) “Resistant”; (peptide BAD 0.3 uM, feature RPS15) “Resistant”; (peptide BAD 0.3 uM, feature loss_6q) “Resistant”; under setting [1], “Resistant”. For the same compound, the direction result by setting is: (peptide BIM 0.01 uM, feature BIRC3) “Sensitive”; (peptide BIM 0.01 uM, feature ITIH2) “Sensitive”; (peptide BIM 0.01 uM, feature loss_9p21.3) “Sensitive”; (peptide BIM 0.01 uM, feature loss_17q11.2) “Sensitive”; (peptide MS1 2.5 uM, feature EC-i) “Resistant”; (peptide MS1 2.5 uM, feature IGLV321_R110) “Resistant”. In addition, the direction result (peptide MS1 2.5 uM, feature RPS15) is given as “Resistant”; the direction result (peptide MS1 2.5 uM, feature loss_6q) is given as “Resistant”; the direction entry under setting [2] is reported as “Resistant”.

Take `CCC[C@H](N[C@H]1CCc2cc(F)cc(F)c2C1)C(=O)Nc1cn(C(C)(C)CNCC(C)(C)C)cn1` [Nirogacestat]: the direction result (peptide BAD 0.3 uM, feature loss_1p36.11) was “Resistant”; the direction result (peptide BAD 0.3 uM, feature loss_3p13) is “Resistant”; the direction entry (peptide BAD 0.3 uM, feature loss_18q21.2) is “Resistant”; the direction entry (peptide BIM 0.01 uM, feature EC-m2) is reported as “Sensitive”; the direction entry (peptide BIM 0.01 uM, feature tri_12) is “Sensitive”; the direction entry (peptide PUMA 1 uM, feature BIRC3) is “Sensitive”. Further, the direction result (peptide PUMA 1 uM, feature loss_1q21.3) was “Sensitive”; the direction entry (peptide PUMA 1 uM, feature loss_7p22.2) is given as “Sensitive”; the direction result (peptide PUMA 1 uM, feature loss_9p21.3) is recorded as “Sensitive”; the direction entry (peptide PUMA 1 uM, feature loss_17q11.2) is listed as “Sensitive”.

As for `COc1ccc(C2=N[C@@H](c3ccc(Cl)cc3)[C@@H](c3ccc(Cl)cc3)N2C(=O)N2CCNC(=O)C2)c(OC(C)C)c1` [Nutlin-3], the “drug-induced apoptotic priming by expression cluster” value (EC-m1) is reported as “most sensitive”. Besides, the direction result (Feature FBXW7) is “Resistant”; the direction result (Feature priortrt_Post) was “Resistant”; the direction result under setting [3] is listed as “Sensitive”; the direction result under setting [4] is “Resistant”; the direction result under setting [1] is on record as “Resistant”; the direction entry under setting [5] was “Sensitive”. The direction entry is listed as “Sensitive” (peptide PUMA 1 uM, feature EC-m4); “Resistant” (peptide PUMA 1 uM, feature FBXW7); “Resistant” (peptide PUMA 1 uM, feature loss_17p13.1); “Resistant” under setting [2]. For the same compound, the drug-induced apoptotic priming entry (across CLL subtypes, 65 primary CLL samples, 20 hours drug) was “high priming”. Moreover, the dprim_pearson_corr reads like this: under setting [3], 0.4093; under setting [4], −0.4093; under setting [1], −0.4166; under setting [5], 0.3373.

In the case of `CC(C)c1cc(C(=O)N2Cc3ccc(CN4CCN(C)CC4)cc3C2)c(O)cc1O` [Onalespib], the direction result by setting is: (peptide BAD 0.3 uM, feature loss_1q42.13) “Sensitive”; (peptide BAD 0.3 uM, feature loss_13q14.13) “Sensitive”; (peptide BAD 0.3 uM, feature loss_16p11.2) “Sensitive”; (peptide BIM 0.01 uM, feature loss_15q15.1b) “Resistant”; (peptide BIM 0.01 uM, feature loss_20p11.22) “Resistant”; (peptide MS1 2.5 uM, feature loss_19p13.11) “Sensitive”. Moreover, the direction result (peptide PUMA 1 uM, feature loss_6q21) is “Resistant”.
